From US6063783A, “Analgesic use of triazolo-pyridazine derivatives” (Merck Sharp & Dohme Ltd., priority 1997, dated 2000)

Columns and labels:
chain pulling = chain pulling (sedation) in rats; format: in vivo, rat; details: food-deprived P.V.G. rats; oral doses of up to 100 mg/kg; chain pulls recorded for up to 60 min
Experimental: Response sensitivity training and testing was carried out in standard operant conditioning chambers. Each chamber was equipped with a chain suspended from the centre of the ceiling and connected to a micro switch. Food pellets were delivered into a food magazine positioned at floor level in the centre of the front wall. Food-deprived P.V.G. rats (280-380 g) were trained to pull a chain for access to food pellets according to a random interval (RI) 30 s schedule. Animals received Compound A at 1, 3, 10, 30 or 100 mg/kg or vehicle and the number of chain pulls recorded for up to 60 min. Response rates for drug-treated animals are then expressed as a percentage of response rates for vehicle-treated rats.
(§1) Compound A was suspended in 0.5% methocel and administered orally. Doses refer to the free base.

[1] = tested on: carrageenan-induced hyperalgesia; test: rat carrageenan-induced hyperalgesia assay; format: in vivo; details: male Sprague Dawley rats, oral, given 2 h after carrageenan, mechanical thresholds at 3 h, read-out: ID50, inhibition of carrageenan-induced hyperalgesia
Experimental: Carrageenan-induced hyperalgesia
Male Sprague Dawley rats (100-120 g) received an intraplantar injection of carrageenan (4.5 mg) and mechanical thresholds were determined 3 h later using a modified Ugo Basile Algesiometer. Control rats received saline (0.15 ml i.pl.). Hyperalgesia was defined as the difference in vocalisation threshold for saline- and carrageenan-injected rats. Paw pressure scores for drug-treated rats were expressed as a percentage of this response. Compound A (1, 3 or 10 mg/kg) or vehicle were administered 2 h after carrageenan.
as §1

Cn1ncnc1COc1nn2c(-c3ccccc3)nnc2cc1N1CCCC1 [Compound A, 6-(2-methyl-2H-1,2,4-triazol-3-ylmethoxy)-3-phenyl-7-(pyrrolidin-1-yl)-1,2,4-triazolo[4,3-b]pyridazine]
effects on chain pulling (sedation) (chain pulling): no effects | ED50 [1]: 5.3 mg/kg
